The record followed here is patent publication US5304551A, “Anti-fungal compounds” (British Technology Group Limited, priority 1990, dated 1994).

The structures appear in SMILES notation. ≈ marks a conversion by molar mass, not a printed value.

Holding throughout (format): cell-based
In test [1] the test system is Candida albicans NCYC 597. The test can be described thus: Antifungal activity, agar plate disc zone of inhibition, approximate MIC, Candida albicans. The conditions noted are these: NCYC597, C. albicans, compound in dimethyl sulphoxide, 13 mm discs on nutrient agar, 24h and 48h incubation, read-out: MICs, C. albicans. Here is the method:
(§1) Candida albicans NCYC 597; Trichophyton mentagrophytes NCPF 224 and Microsporum audounii NCPF 638 were used throughout as test organisms. These are open deposits at the National Collection of Yeast Cultures, Norwich UK and the National Collection of Pathogenic Fungi of the Commonwealth Mycological Institute, Kew UK.
(§2) All organisms were maintained in a nutrient broth containing (gl^-1): Lab Lemco (Oxoid), 5; Peptone (Oxoid), 5; NaCl, 10. Cultures for testing antimicrobial activity were grown in this medium for 18h prior to use. Solidified media were prepared by the addition of Agar (Oxoid No. 3) 1.5% w/v.
(§3) Antifungal activity was estimated using solutions of the compound (as the free acid) in dimethyl sulphoxide. A range of concentrations was used for each compound to permit calculation of an approximate MIC. 13 mm discs (Whatman) were soaked in a solution of the appropriate dilution, either allowed to dry, or placed directly onto the surface of nutrient agar plates seeded with the required test organism.
(§4) After 24h incubation the diameters of zones of inhibition were measured. After a further 24h incubation, the plates were re-examined and zones re-measured.

For test [2], the system named is Trichophyton mentagrophytes NCPF 224. In words: Antifungal activity, agar plate disc zone of inhibition, approximate MIC, Trichophyton mentagrophytes. The following applies: for MIC: Trichophyton mentagrophytes, NCPF224, approximate MIC, compound in dimethyl sulphoxide, 13 mm discs on nutrient agar, 24h and 48h incubation, read-out: MICs, T. ment.; for activity against the athlete's foot organism (in words): athlete's foot and ringworm organisms. How it is done:
as §1, §2, §3, §4

Test [3] has as its system Microsporum audounii NCPF 638. The test can be described thus: Antifungal activity, agar plate disc zone of inhibition, approximate MIC, Microsporum audounii. The conditions noted are these: for MIC: Microsporum, NCPF638, M. audounii, approximate MIC, compound in dimethyl sulphoxide, 13 mm discs on nutrient agar, 24h and 48h incubation; for activity against the ringworm organism (in words): athlete's foot and ringworm organisms. Here is the method:
as §1, §2, §3, §4

Take `C[C@H](CCCCO)[C@H]1CC[C@H]2[C@@H]3[C@H](O)C[C@@H]4C[C@H](O)CC[C@]4(C)[C@H]3CC[C@]12C` [chenodeoxycholic, Z = CH2 OH, 3α,7α,25-trihydroxy-25-homo-5β-cholane]: the MIC in test [1] is 110 µg/mL (≈ 280 µM); in test [3], 270 µg/mL (≈ 688 µM). Besides, in test [2] (T. mentagrophytes, no MIC / no activity), the “MICs, T. ment. (result in words)” value is given as “NONE”.

On to `C[C@H](CCCO)[C@H]1CC[C@H]2[C@@H]3[C@H](O)C[C@@H]4C[C@H](O)CC[C@]4(C)[C@H]3CC[C@]12C` [chenodeoxycholic, Z = OH, 3α,7α,24-trihydroxy-5β-cholane], for which the MIC in test [1] was 7000 µg/mL (≈ 18500 µM); in test [2] (T. mentagrophytes), 30 µg/mL (≈ 79.2 µM); in test [3] it was 50 µg/mL (≈ 132 µM).

On to `C[C@H](CCCCO)[C@H]1CC[C@H]2[C@@H]3[C@H](O)C[C@@H]4C[C@H](O)CC[C@]4(C)[C@H]3C[C@H](O)[C@]12C` [cholic, Z = CH2 OH, 3α,7α,12α,25-tetrahydroxy-25-homo-5β-cholane], for which the results for the MIC in test [1], in test [2] (T. mentagrophytes) and in test [3] were 450 µg/mL (≈ 1100 µM), 100 µg/mL (≈ 245 µM) and 20 to 50 µg/mL (≈ 48.9 to 122 µM), respectively.

For `C[C@H](CCCO)[C@H]1CC[C@H]2[C@@H]3[C@H](O)C[C@@H]4C[C@H](O)CC[C@]4(C)[C@H]3C[C@H](O)[C@]12C` [cholic, Z = OH, 3α,7α,12α,24-tetrahydroxy-5β-cholane], the MIC was determined as 900 µg/mL (≈ 2280 µM) in test [1], 1650 µg/mL (≈ 4180 µM) in test [2] (T. mentagrophytes) and 3800 µg/mL (≈ 9630 µM) in test [3].

On to `C[C@H](CCCCO)[C@H]1CC[C@H]2[C@@H]3CC[C@@H]4C[C@H](O)CC[C@]4(C)[C@H]3C[C@H](O)[C@]12C` [deoxycholic, Z = CH2 OH, 3α,12α,25-trihydroxy-25-homo-5β-cholane], for which the values for the MIC in test [1], in test [2] (T. mentagrophytes) and in test [3] were 150 µg/mL (≈ 382 µM), 30 µg/mL (≈ 76.4 µM) and 5 µg/mL (≈ 12.7 µM), respectively. For the same compound, the “activity against the athlete's foot organism (in words)” value in test [2] is “outstanding”. For the same compound, the “activity against the ringworm organism (in words)” value in test [3] is “outstanding”.

Take `C[C@H](CCCO)[C@H]1CC[C@H]2[C@@H]3CC[C@@H]4C[C@H](O)CC[C@]4(C)[C@H]3C[C@H](O)[C@]12C` [deoxycholic, Z = OH, 3α,12α,24-trihydroxy-5β-cholane]: the values for the MIC in test [1], in test [2] (T. mentagrophytes) and in test [3] were 730 µg/mL (≈ 1930 µM), 10 µg/mL (≈ 26.4 µM) and 10 µg/mL (≈ 26.4 µM), respectively. Moreover, the “activity against the athlete's foot organism (in words)” value in test [2] is given as “outstanding”. Moreover, in test [3], the “activity against the ringworm organism (in words)” value is given as “outstanding”.
